Measurements published in patent US9096565B2, “Inhibitors of histone deacetylase” (MethylGene Inc., priority 2007, dated 2015).

molecular target: one or more of HDAC-4, HDAC-5, HDAC-6, HDAC-7, HDAC-8, HDAC-9, HDAC-10 and HDAC-11; assay: Inhibition of histone deacetylase enzymatic activity (summary statement over isoforms); format: biochemical; settings: Table 3, selected examples; HDAC isoform not given
Experimental: The following protocol is used to assay the compounds of the invention.
The mixture is pre-incubated for 5 minutes at room temperature. The reaction is started by bringing the temperature to 37° C. and adding 15 μL substrate. Total reaction volume is 50 μL.
A 30 mM stock of Boc-Lys(trifluoroacetyl)-AMC substrate is prepared in DMSO. […] Reaction is started by adding 18 μL Boc-Lys(trifluoroacetyl)-AMC substrate and incubating at 37° C. for 20-30 minutes. The reaction is stopped by adding 50 μL trypsin (1 mg/mL) and a known HDAC inhibitor.

| Compound | IC50 |
| --- | --- |
| CC(C)(C)C(=O)N1CCCN(C(C(=O)NO)c2ccccc2)CC1 (centres unmarked) [Compound 2-24, N-hydroxy-2-phenyl-2-(4-pivaloyl-1,4-diazepan-1-yl)acetamide] | 1000 to 15000 nM |
| CC(=O)Nc1cccc(C(C(=O)NO)c2ccccc2)c1 (centres unmarked) [Compound 2-52, 2-(3-acetamidophenyl)-N-hydroxy-2-phenylacetamide] | 1000 to 15000 nM |
| CCSc1ccc(-c2ccc(C(C(=O)NO)c3ccccc3)cc2)cc1 (centres unmarked) [Compound 2-115, 2-(4′-(ethylthio)biphenyl-4-yl)-N-hydroxy-2-phenylacetamide] | < 1000 nM |
| O=C(NO)/C(=C/c1ccccc1)c1ccccc1 [Compound 1-21, (E)-N-hydroxy-2,3-diphenylacrylamide] | < 1000 nM |
| CCCC(=O)ONC(=O)C(c1ccccc1)c1ccc(N2CCOCC2)cc1 (centres unmarked) [Compound 5-128, N-(butyryloxy)-2-(4-morpholinophenyl)-2-phenylacetamide] | 1000 to 15000 nM |
| CC(C)NC(=O)N1CCCN(C(C(=O)NO)c2ccccc2)CC1 (centres unmarked) [Compound 2-31, 4-(2-(hydroxyamino)-2-oxo-1-phenylethyl)-N-isopropyl-1,4-diazepane-1-carboxamide] | 1000 to 15000 nM |
| Cc1ccccc1OC(C(=O)NO)c1ccccc1 (centres unmarked) [Compound 7-1, N-hydroxy-2-phenyl-2-(o-tolyloxy)acetamide] | 1000 to 15000 nM |
| O=C(NO)C(c1ccccc1)c1ccc(NS(=O)(=O)c2ccccc2)cc1 (centres unmarked) [Compound 2-88, N-hydroxy-2-phenyl-2-(4-(phenylsulfonamido)phenyl)acetamide] | < 1000 nM |
| O=C(NO)C(c1ccccc1)N1CCC(c2cn(Cc3ccccc3)c3ccccc23)CC1 (centres unmarked) [Compound 5-17, 2-(4-(1-benzyl-1H-indol-3-yl)piperidin-1-yl)-N-hydroxy-2-phenylacetamide] | < 1000 nM |
| O=C(NO)C(c1ccccc1)c1ccc(OCC2CCCCC2)cc1 (centres unmarked) [Compound 3-57, 2-(4-(cyclohexylmethoxy)phenyl)-N-hydroxy-2-phenylacetamide] | < 1000 nM |
| O=C(NO)C(Cc1ccccc1)c1ccccc1 (centres unmarked) [Compound 1-11, N-hydroxy-2,3-diphenylpropanamide] | 1000 to 15000 nM |
| O=C(NO)C(c1ccccc1)c1ccc(-c2ccc3[nH]ccc3c2)cc1 (centres unmarked) [Compound 5-41, 2-(4-(1H-indol-5-yl)phenyl)-N-hydroxy-2-phenylacetamide] | < 1000 nM |
| CCCc1cccc(C(C(=O)NO)c2ccccc2)c1 (centres unmarked) [Compound 2-101, N-hydroxy-2-phenyl-2-(3-propylphenyl)acetamide] | < 1000 nM |
| O=C(Nc1ccc(C(C(=O)NO)c2ccccc2)cc1)c1ccc(F)cc1 (centres unmarked) [Compound 2-61, 4-fluoro-N-(4-(2-(hydroxyamino)-2-oxo-1-phenylethyl)phenyl)benzamide] | < 1000 nM |
| CC(=O)N1CCN(c2ccc(C(C(=O)NO)c3ccccc3)cc2)CC1 (centres unmarked) [Compound 3-82, 2-(4-(4-acetylpiperazin-1-yl)phenyl)-N-hydroxy-2-phenylacetamide] | < 1000 nM |
| COc1cccc(NC(=O)N2CCCN(C(C(=O)NO)c3ccccc3)CC2)c1 (centres unmarked) [Compound 2-37, 4-(2-(hydroxyamino)-2-oxo-1-phenylethyl)-N-(3-methoxyphenyl)-1,4-diazepane-1-carboxamide] | 1000 to 15000 nM |
| Cc1cc(C)cc(COc2ccc(C(C(=O)NO)c3ccccc3)cc2)c1 (centres unmarked) [Compound 3-62, 2-(4-(3,5-dimethylbenzyloxy)phenyl)-N-hydroxy-2-phenylacetamide] | < 1000 nM |
| O=C(NO)C(c1ccccc1)c1cccc(N2CCN(Cc3ccncc3)CC2)c1 (centres unmarked) [Compound 3-12, N-hydroxy-2-phenyl-2-(3-(4-(pyridin-4-ylmethyl)piperazin-1-yl)phenyl)acetamide] | < 1000 nM |
| O=C(NO)C(c1ccccc1)c1ccc(-c2ccc(Cl)cc2)cc1 (centres unmarked) [Compound 2-112, 2-(4′-chlorobiphenyl-4-yl)-N-hydroxy-2-phenylacetamide] | < 1000 nM |
| COCCOc1ccc(C(C(=O)NO)c2ccccc2)cc1 (centres unmarked) [Compound 3-50, N-hydroxy-2-(4-(2-methoxyethoxy)phenyl)-2-phenylacetamide] | < 1000 nM |
| CCN(CC)CC#Cc1ccc(C(C(=O)NO)c2ccccc2)cc1 (centres unmarked) [Compound 5-101, 2-(4-(3-(diethylamino)prop-1-ynyl)phenyl)-N-hydroxy-2-phenylacetamide] | < 1000 nM |
| O=C(NO)C(c1ccccc1)N1CCC(Cc2ccc(F)cc2)CC1 (centres unmarked) [Compound 1-30, 2-(4-(4-fluorobenzyl)piperidin-1-yl)-N-hydroxy-2-phenylacetamide] | < 1000 nM |
| O=C(NO)C(c1ccccc1)N1CCN(c2ccc(F)cc2)CC1 (centres unmarked) [Compound 5-57, 2-(4-(4-fluorophenyl)piperazin-1-yl)-N-hydroxy-2-phenylacetamide] | 1000 to 15000 nM |
| CC(C)Oc1ccc(C(C(=O)NO)c2ccccc2)cc1 (centres unmarked) [Compound 3-47, N-hydroxy-2-(4-isopropoxyphenyl)-2-phenylacetamide] | < 1000 nM |

| Compound | IC50 |
| --- | --- |
| Cc1cccc(COc2cccc(C(C(=O)NO)c3ccccc3)c2)c1 (centres unmarked) [Compound 3-33, N-hydroxy-2-(3-(3-methylbenzyloxy)phenyl)-2-phenylacetamide] | 1000 to 15000 nM |
| O=C(NO)C(c1ccccc1)c1cccc(OCc2ccccc2)c1 (centres unmarked) [Compound 2-6, 2-(3-(benzyloxy)phenyl)-N-hydroxy-2-phenylacetamide] | < 1000 nM |
| O=C(Nc1cccc(C(C(=O)NO)c2ccccc2)c1)c1ccnc(Cl)c1 (centres unmarked) [Compound 3-14, 2-chloro-N-(3-(2-(hydroxyamino)-2-oxo-1-phenylethyl)phenyl)isonicotinamide] | 1000 to 15000 nM |
| O=C(NO)C(c1ccccc1)c1ccc(N2CCN(c3cccc(C(F)(F)F)c3)CC2)cc1 (centres unmarked) [Compound 5-67, N-hydroxy-2-phenyl-2-(4-(4-(3-(trifluoromethyl)phenyl)piperazin-1-yl)phenyl)acetamide] | < 1000 nM |
| CS(=O)(=O)c1ccc(-c2cccc(C(C(=O)NO)c3ccccc3)c2)cc1 (centres unmarked) [Compound 2-110, N-hydroxy-2-(4′-(methylsulfonyl)biphenyl-3-yl)-2-phenylacetamide] | < 1000 nM |
| O=C(NO)C(C(=O)Nc1cccc(C(F)(F)F)c1)c1ccccc1 (centres unmarked) [Compound 1-33, N1-hydroxy-2-phenyl-N3-(3-(trifluoromethyl)phenyl)malonamide] | < 1000 nM |
| CC(Oc1ccc(C(C(=O)NO)c2ccccc2)cc1)c1ccccc1 (centres unmarked) [Compound 3-59, N-hydroxy-2-phenyl-2-(4-(1-phenylethoxy)phenyl)acetamide] | < 1000 nM |
| O=C(NO)C(c1ccccc1)N1CCC(CCc2ccccc2)CC1 (centres unmarked) [Compound 1-31, N-hydroxy-2-(4-phenethylpiperidin-1-yl)-2-phenylacetamide] | < 1000 nM |
| CN(C)c1ccc(C(C(=O)NO)c2ccccc2)cc1 (centres unmarked) [Compound 1-29, 2-(4-(dimethylamino)phenyl)-N-hydroxy-2-phenylacetamide] | < 1000 nM |
| O=C(NO)C(c1ccccc1)c1cccc(NCC2CCCCC2)c1 (centres unmarked) [Compound 2-83, 2-(3-(cyclohexylmethylamino)phenyl)-N-hydroxy-2-phenylacetamide] | 1000 to 15000 nM |
| O=C(NO)C(c1ccccc1)n1cc(Cc2ccccc2)nn1 (centres unmarked) [Compound 1-35, 2-(4-benzyl-1H-1,2,3-triazol-1-yl)-N-hydroxy-2-phenylacetamide] | < 1000 nM |
| O=C(NO)C(c1ccccc1)c1ccc(Oc2ccccc2)cc1 (centres unmarked) [Compound 5-111, N-hydroxy-2-(4-phenoxyphenyl)-2-phenylacetamide] | < 1000 nM |
| O=C(NO)C(c1ccccc1)N1CCN(c2ccc(C(F)(F)F)cn2)CC1 (centres unmarked) [Compound 5-48, N-hydroxy-2-phenyl-2-(4-(5-(trifluoromethyl)pyridin-2-yl)piperazin-1-yl)acetamide] | < 1000 nM |
| O=C(NO)C(c1ccccc1)N1CCC(c2ccccc2)CC1 (centres unmarked) [Compound 1-44, N-hydroxy-2-phenyl-2-(4-phenylpiperidin-1-yl)acetamide] | < 1000 nM |
| Cc1ccccc1C(C(=O)NO)c1ccc(N2CCOCC2)cc1 (centres unmarked) [Compound 6-19, N-hydroxy-2-(4-morpholionphenyl)-2-o-tolylacetamide] | < 1000 nM |
| O=C(NO)C(c1ccccc1)c1ccc(N2CCC(Cc3ccccc3)CC2)cc1 (centres unmarked) [Compound 5-51, 2-(4-(4-benzylpiperidin-1-yl)phenyl)-N-hydroxy-2-phenylacetamide] | < 1000 nM |
| O=C(NO)C(c1ccccc1)c1cccc(C#CCC2CCCC2)c1 (centres unmarked) [Compound 2-96, 2-(3-(3-cyclopentylprop-1-ynyl)phenyl)-N-hydroxy-2-phenylacetamide] | < 1000 nM |
| Cc1[nH]c2ccccc2c1CN1CCC(Oc2ccc(C(C(=O)NO)c3ccccc3)cc2)CC1 (centres unmarked) [Compound 5-132, N-hydroxy-2-(4-(1-((2-methyl-1H-indol-3-yl)methyl)piperidin-4-yloxy)phenyl)-2-phenylacetamide] | < 1000 nM |
| O=C(NO)C(c1ccccc1)N1CCN(c2ccc(C(F)(F)F)cc2)CC1 (centres unmarked) [Compound 5-43, N-hydroxy-2-phenyl-2-(4-(4-(trifluoromethyl)phenyl)piperazin-1-yl)acetamide] | < 1000 nM |
| CC(COc1cccc(C(C(=O)NO)c2ccccc2)c1)CN(C)C (centres unmarked) [Compound 3-17, 2-(3-(3-(dimethylamino)-2-methylpropoxy)phenyl)-N-hydroxy-2-phenylacetamide] | < 1000 nM |
| O=C(NO)C(c1ccccc1)c1ccc(OCCOc2ccc(F)cc2)cc1 (centres unmarked) [Compound 3-69, 2-(4-(2-(4-fluorophenoxy)ethoxy)phenyl)-N-hydroxy-2-phenylacetamide] | < 1000 nM |
| O=C(Nc1cccc(C(C(=O)NO)c2ccccc2)c1)c1ccc(F)cc1 (centres unmarked) [Compound 2-62, 4-fluoro-N-(3-(2-(hydroxyamino)-2-oxo-1-phenylethyl)phenyl)benzamide] | < 1000 nM |
| CC(C)N1CCN(c2ccc(C(C(=O)NO)c3ccccc3)cc2)CC1 (centres unmarked) [Compound 5-93, N-hydroxy-2-(4-(4-isopropylpiperazin-1-yl)phenyl)-2-phenylacetamide] | < 1000 nM |
